Read-outs that look alike come from different tables or passages of the source.
Assays:
[1] = tested on: CAM (choriallantoic membrane); settings: CAM assay; for angiogenesis: filter paper with 10 or 50 μM solution 10 μl, three days
Protocol: Particularly, the fertilized egg was incubated in a 37° C. 55% humid incubator. 10 days later, the egg albumin was removed by using a 2 ml hypodermic syringe in order to separate CAM and yolk sac from the shell membrane. On 10.5th day, the egg shell was removed (1 cm^2). […] Three days later, 1-2 ml of 10% fat emulsion was injected into chorioallantoic membrane, followed by observation under a microscope.

[2] = tested on: VEGF; assay: Effects of CQ and TPEN on the expression of VEGF, a HIF-1α target gene (RT-PCR); assay type: cell-based, human; settings: TPEN 5 μM
Excerpt: ID. […] ID. NO: 2 (5′-[…]-3′). […] ID. […] ID. NO: 4 (5′-[…]-3′).

[3] = tested on: HRE (hypoxia-response element); assay: HRE dependent gene expression in HepG2 hepatoma cells (luciferase reporter gene assay); assay type: cell-based, human; settings: p(HRE)4-luc, TPEN 5, 10 μM, CQ 10, 50 μM, 16 hours
Protocol: Human HepG2 hepatoma cells were grown to the density of 5×10^4 and then transfected with 100 ng of HRE-driven reporter plasmid, p(HRE)4-luc together with plasmid pCHO110 which encodes β-galactosidase. The transfected human HepG2 hepatoma cells were cultured under normoxic condition and hypoxic condition and then treated with TPEN (5, 10 μM) and CQ (10, 50 μM) for 16 hours each. 48 hours after the transfection, luciferase activities were analyzed using the reporter gene assay system (Promega, USA) and normalized by β-galactosidase activities.

[4] = tested on: GAL4-HIF-1α; assay: HIF-1α transactivation, Gal4-driven reporter gene assay in HepG2 cells; assay type: cell-based, human; settings: normoxic condition, CQ 10, 50 μM, TPEN 5 μM, 16 hours
Protocol: Human HepG2 hepatoma cells were cultured at the concentration of 5×10^4, which were transfected with 100 ng of Gal-4-driven reporter plasmid encoding the firefly luciferase gene under the control of the Gal4 binding site together with pGal4/HIF-1α plasmid which expresses HIF-1α linked to the DNA binding domain of the yeast Gal4 protein (amino acids 1-147). The transfected human HepG2 hepatoma cells were incubated in both normoxic and hypoxic conditions and then treated with CQ (10, 50 μM) for 16 hours in normoxic condition. 48 hours after the transfection, luciferase activities were analyzed using the reporter gene assay system (Promega, USA) and normalized by β-galactosidase activities.

[5] = tested on: EPO; settings: normoxic condition, CQ 10, 50 μM, 16 hours; HepG2 and SH-SY5Y cells
Protocol: (§1) Total RNA was extracted by using RNase Spin column (Qiagen, USA). VEGF expression was investigated by Northern blot analysis. Northern blot hybridization was performed using ^32P-labeled VEGF cDNA probe and ^32P-labeled EPO cDNA probe. The Northern blotting was performed by the conventional method well known to those in the art (Sambrook et al., Molecular cloning, 1989).

[6] = tested on: VEGF; settings: normoxic condition, CQ 10, 50 μM, 16 hours; HepG2 and SH-SY5Y cells
Protocol: as §1

[7] = target: T1, FIH-1 (Homo sapiens, UniProt Q9NWT6); settings: F-HIF-1α peptide 4 μM, recombinant FIH-1, MALDI-TOF
Protocol: The present inventors examined FIH-1 activity by measuring the asparagine hydroxylation of F-HIF-1α peptide. The peptide hydroxylation was measured by mass spectrophotometry.
Particularly, F-HIF-1α (788-822 amino acids: FITC-aca-[sequence]) containing fluorescein and aca (aminocaproic acid) linker (AnyGen, KwangJu, Korea) at N-terminal was reacted with FIH-1 protein. The F-HIF-1α peptide was incubated at a final concentration of 4 μM with 2.8 μg of recombinant FIH-1 in reaction solution [20 mM Tris buffer (pH 7.5), 5 mM KCl, 1.5 mM MgCl2, 100 μM α-ketoglutarate and 400 μM ascorbic acid: final volume 50 μl]. After incubation with agitation for 2 hours at room temperature, excess salts were removed with ZipTipC18 (Millipore, USA). The F-HIF-1α peptide was eluted from the tip with a-cyano-4-hydroxycinnamic acid in acetonitrile/water (50:50 v/v) containing 0.1% TFA followed by washing with distilled water containing 0.1% TFA. The eluted peptide solution was transferred to a MALDI sample plate and MALDI-TOF measurements were performed with a Voyager analyzer (Applied Biosystems, USA).

[8] = cited from earlier work
[9] = in vivo; cited from earlier work
[10] = used as an antibiotic in the mid-1900s, Japan; cited from earlier work
[11] = tested on: APP2576 transgenic mice; settings: cited from earlier work
[12] = tested on: patients with Alzheimer's disease; settings: phase II clinical trial; cited from earlier work
[13] = tested on: human cancer cell lines; settings: several human cancer cell lines; cited from earlier work
[14] = target: T1, FIH-1; assay: In vitro FIH-1 activity (capture of radio-labeled HIF-1α by GST-CBP); assay type: biochemical; parameters: histidine tag; made in house; host or cells: E. coli
Protocol: The human FIH-1 gene (AF395830) was cloned into pET28a vector (Novagen, USA) and FIH-1 was overexpressed in E. coli as a histidine-tagged fusion protein and purified by Ni-affinity chromatography. The fusion protein was purified by gel-filtration chromatography (Hi-Load Superdex 200) and concentrated by ultrafiltration (Choi et al., Mol Pharmacol 68:1803-1809, 2005).
The resin-bound GST-CBP N-domain (amino acids 1-450) (Kamei et al., Cell 85:403-414, 1996) was then added to 1 μg of each mixture in 500 μl of binding buffer (200 mM Tris-HCl (pH 8.0), 150 mM NaCl, 20 μM ZnCl2, 0.5 mM DTT) and incubation continued for one hour at 4° C. Glutathione-uniflow resin bound protein was washed four times with 1 ml of 0.1% Nondiet P-40 containing binding buffer, and visualized by SDS-PAGE by eluting using SDS sample buffer (Dann et al., Proc Natl Acad Sci USA 99:15351-15356, 2002). The present inventors substituted the asparagine-803 residue of HIF-1α with alanine to generate HIF-1α mutant [HIF-1α-C(N803A)], followed by investigation on FIH-1 activity by the same manner as described above.
Radio-labeled HIF-1α was reacted with the purified recombinant FIH-1, in the presence or absence of CQ or TPEN. FIH-1 was expected to […] the asparagine-803 residue of HIF-1α and thus inhibit the interaction with CBP binding to HIF-1α transactivation domain (Mahon, P. C. et al., Genes Dev. 15, 2675-2686, 2001; Dannm C. E. R., et al., Proc. Natl. Acad. Sci. USA 99, 15351-15356, 2002; Lando, D., et al., Science 295, 858-861, 2002; Freedman, S. J. et al., Proc. Natl. Acad. Sci. USA 99, 5367-5372, 2002).

[15] = tested on: VEGF; settings: 50 μM; cell line not clearly stated (SH-SY5Y implied)
Protocol: Total RNA was extracted by using RNase Spin column (Qiagen, USA). cDNA was synthesized from 1 μg of the extracted RNA using AMV reverse transcriptase (Promega, USA) and random hexamer (Gibco-BRL, USA). RT-PCR was performed using the synthesized cDNA as a template with a VEGF forward primer represented by SEQ. […] NO: 1 (5′-[sequence]-3′) and a VEGF reverse primer represented by SEQ. […] NO: 2 (5′-[sequence]-3′). RT-PCR conditions were as follows; predenaturation at 95° C. for 5 minutes, denaturation at 95° C. for 45 seconds, annealing at 56° C. for 45 seconds, polymerization at 72° C. for 60 seconds, 30 cycles from denaturation to polymerization. For the control, RT-PCR was performed again with an 18S forward primer represented by SEQ. […] NO: 3 (5′-[sequence]-3′) and an 18S reverse primer represented by SEQ. […] NO: 4 (5′-[sequence]-3′). RT-PCR conditions were as follows; predenaturation at 95° C. for 5 minutes, denaturation at 95° C. for 45 seconds, annealing at 56° C. for 45 seconds, polymerization at 72° C. for 60 seconds, 30 cycles from denaturation to polymerization.

[16] = 10 μM solution 10 μl (lower amount, 30.3-39.7 ng)
[17] = 50 μM solution 10 μl (higher amount, 151.5-198.5 ng)

T1 sequence (Q9NWT6 whole entry): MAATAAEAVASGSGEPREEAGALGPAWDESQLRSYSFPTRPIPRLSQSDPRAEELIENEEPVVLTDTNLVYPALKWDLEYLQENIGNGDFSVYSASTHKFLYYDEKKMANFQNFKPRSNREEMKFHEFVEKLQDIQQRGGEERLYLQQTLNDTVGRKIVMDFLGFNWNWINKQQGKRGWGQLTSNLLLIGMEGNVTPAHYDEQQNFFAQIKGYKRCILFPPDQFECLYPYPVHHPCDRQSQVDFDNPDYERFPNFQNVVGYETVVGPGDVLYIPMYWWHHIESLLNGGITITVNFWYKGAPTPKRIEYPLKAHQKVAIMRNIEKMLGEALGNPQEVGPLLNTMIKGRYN

Oc1c(I)cc(I)c2cccnc12 [B, 5,7-diiodo-8-hydroxyquinoline]
Angiogenesis/total (No.) [1, 16]: 5/7
Angiogenesis/total (No.) [1, 17]: 4/6
angiogenesis [1]: promote angiogenesis

Oc1c(I)cc(Cl)c2cccnc12 [CQ, 5-chloro-7-iodo-8-quinolinol]
VEGF expression ([2]; HepG2 cells, normoxic, CQ 10, 100 μM): differed in their effects on VEGF expression
VEGF expression ([2]; SH-SY5Y cells, normoxic condition, CQ 10, 100 μM): increased VEGF expression
VEGF expression ([2]; hypoxic condition, 16 hours, CQ 100 μM, SH-SY5Y and HepG2 cells): none of the control, TPEN and CQ increased VEGF expression
HIF-1α dependent hypoxia-response element (HRE) activity [3]: induced HIF-1α dependent hypoxia-response element (HRE) activity
transactivation activity of HIF-1α [4]: increased transactivation activity of HIF-1α
expression of EPO [5]: increased expressions of VEGF and EPO
expression of VEGF [6]: increased expressions of VEGF and EPO
Angiogenesis/total (No.) [1, 16]: 8/12
Angiogenesis/total (No.) [1, 17]: 8/12
angiogenesis [1]: promote angiogenesis
asparagine-hydroxylating activity of FIH-1 [7]: inhibits the asparagine-hydroxylating activity of FIH-1
pKa value, Ca2+ ([8]; Ca^2+): 8.1
pKa value, Cu2+ ([8]; Cu^2+): 15.8
pKa value, Mg2+ ([8]; Mg^2+): 8.6
pKa value, Zn2+ ([8]; Zn^2+): 12.5
crossing of the blood-brain barrier [9]: able to cross the blood-brain barrier
adverse effect in people [10]: caused subacute myelo-optic neuropathy
amyloid beta plaques and serum levels of amyloid beta [11]: reduced both amyloid beta plaques and serum levels of amyloid beta
systemic adverse effects [11]: without systemic adverse effects
cognitive decline [12]: slowed cognitive decline
plasma amyloid beta concentrations [12]: decreased plasma amyloid beta concentrations
apoptotic cell death [13]: causes apoptotic cell death
FIH-1 activity ([14]; CQ 10 μM and 50 μM, interaction between HIF-1α and CBP as readout): FIH-1 activity was reduced
interaction between CBP and HIF-1α-C(N803A) mutant ([14]; HIF-1α-C(N803A) mutant, presence or absence of CQ or FIH-1): did not change the interaction between CBP and HIF-1α-C (N803A)
effect of Cu(II) on the inhibition of FIH-1 activity by CQ ([14]; co-treatment with Cu(II)): failed to reverse the inhibitory effect of CQ
effect of Zn(II) on the inhibition of FIH-1 activity by CQ ([14]; co-treatment with Zn(II)): failed to reverse the inhibitory effect of CQ

Oc1c(Br)cc(Br)c2cccnc12 [C, 5,7-dibromo-8-hydroxyquinoline]
Angiogenesis/total (No.) [1, 16]: 4/6
Angiogenesis/total (No.) [1, 17]: 3/5
angiogenesis [1]: promote angiogenesis
VEGF expression, % to the expression level induced by CQ [15]: 60-70%

— patent publication US8658672B2, “HIF-1α activating agent” (University of Seoul Foundation of Industrial and Academic …, priority 2006, dated 2014)
